# From US8372848B2, “Melanin-concentrating hormone receptor antagonists and methods of use” (Mixture Sciences, Inc., priority 2004, dated 2013)
# Entries after “also recorded” stand apart in the source; their conditions may differ.
# What was measured:
# [1] = target: rat MCH1R (Rattus norvegicus, UniProt P97639); test: MCH-induced Ca2+ mobilization (FLIPR) in HEK 293T cells expressing rat MCH1R; format: cell-based
# [2] = target: human MCH2R (Homo sapiens, UniProt Q969V1); test: Selectivity versus human MCH2R; format: cell-based
# [3] = target: T1, orexin 1R (Homo sapiens, UniProt O43613); test: Selectivity versus orexin 1R; format: cell-based
# T1 sequence (O43613 1-425): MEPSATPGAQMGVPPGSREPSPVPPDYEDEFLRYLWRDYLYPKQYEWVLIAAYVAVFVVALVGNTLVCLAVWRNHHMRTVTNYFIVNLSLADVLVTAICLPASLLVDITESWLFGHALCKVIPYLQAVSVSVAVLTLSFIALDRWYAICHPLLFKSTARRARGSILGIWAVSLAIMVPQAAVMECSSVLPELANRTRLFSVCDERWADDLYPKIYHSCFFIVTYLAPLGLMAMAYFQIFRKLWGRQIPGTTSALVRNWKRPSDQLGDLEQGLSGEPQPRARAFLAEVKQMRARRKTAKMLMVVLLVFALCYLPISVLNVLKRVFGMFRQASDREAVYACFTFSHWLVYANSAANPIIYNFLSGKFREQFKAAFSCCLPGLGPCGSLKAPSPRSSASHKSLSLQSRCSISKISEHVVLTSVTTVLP
# [4] = target: T2, prolactin releasing peptide (PrRP) receptor (Homo sapiens, UniProt P49683); test: Selectivity versus PrRP receptor; format: cell-based
# T2 sequence (P49683 1-370): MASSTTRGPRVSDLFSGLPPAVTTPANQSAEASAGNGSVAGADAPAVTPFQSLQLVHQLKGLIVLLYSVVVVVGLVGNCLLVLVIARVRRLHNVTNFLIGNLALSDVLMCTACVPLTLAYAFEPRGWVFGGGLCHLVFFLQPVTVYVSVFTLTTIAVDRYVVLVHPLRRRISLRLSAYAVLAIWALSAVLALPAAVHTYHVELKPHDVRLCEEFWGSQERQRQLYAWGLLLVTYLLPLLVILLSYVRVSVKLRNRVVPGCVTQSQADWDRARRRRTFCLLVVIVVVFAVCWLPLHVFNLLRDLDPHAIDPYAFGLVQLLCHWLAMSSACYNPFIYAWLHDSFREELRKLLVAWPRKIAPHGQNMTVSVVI
# [5] = target: kappa opioid receptor (dynorphin) (Homo sapiens, UniProt P41145); test: Selectivity versus kappa opioid receptor; format: cell-based
# [6] = target: T3, MCH1R (Rattus norvegicus, UniProt P97639); test: Library screening: inhibition of 30 nM MCH-induced Ca2+ mobilization in CHO cells expressing MCH1R; format: cell-based; settings: five concentrations, ten-fold dilutions starting at 10 µM
# T3 construct: expressed in transfected cells; host or cells: CHO
# Protocol: A total of thirteen heterocyclic or peptidomimetics PS-SCLs containing 8,136,870 individual compounds were tested (Table 1). Most libraries were generated in a PS format by using 40˜50 amino acids at each of the R1 and R2 positions, and 40˜80 carboxylic acids at the R3 position. A sample set of PS-SCLs was screened initially, sub-libraries with defined R3 positions and a mixture of building blocks at each of the other two positions were prepared (all compounds in the library are represented). Each sub-library was composed of 40˜80 mixtures containing 1,500˜3,200 individual compounds. […]
# Each mixture was assayed in duplicate in three separate assays at three concentrations (1, 0.1 and 0.01 µg/ml) (FIG. 1B). MCH1R inhibition was calculated as the percent decrease in intracellular Ca^2+ mobilization in MCH1R expressing CHO cells induced by 30 nM MCH in the presence or absence of the mixture. […]
# Transfected […] cells seeded on black-walled 96-well plates (Sigma, St Louis USA) were loaded for 1 h at 37° C. with Ca^2+-sensitive fluorescent dye, fluo-4 (Molecular Device, CA) in Hanks' balanced salt solution containing 20 mM HEPES (pH 7.4). The level of [Ca^2+]i was then monitored using a FLIPR system (Fluorometric Imaging Plate Reader; Molecular Devices, San Francisco, Calif.). […] Data were expressed as fluorescence (arbitrary units) versus time.
# [7] = system: rats; test: Spontaneous food and water intake after 1 hour deprivation, Example VIII; format: in vivo, rat; settings: 10 nM i.c.v., start of dark cycle; for 30 minute food intake following 1 hour food/water deprivation, TPI treated versus control: b181 words it as control greater than treated, p less than 0.005
# Protocol: In this example, adult male Sprague-Dawley rats, weighing 350-400 g were randomly divided into two (2) groups of eight (8) rats each (Groups I and II). The animals were housed individually in a room having an ambient temperature of 20 degrees C., a light cycle from 07:00 to 19:00 each day and a dark cycle from 19:00 to 07:00.
# In a first experiment, food (rat chow) and water were made available ad libitum except during a 1 hour food/water deprivation period from 18:00 to 19:00. At the end of the 1 hour food/water deprivation period the animals in Group I (n=8) received 0.9% saline by i.c.v. injection and the animals in Group II (n−8) received 10 nM TPI 1361-17 (Formula IV) by i.c.v. injection. Immediately after dosing, and upon commencement of the darkness cycle, food (rat chow) and water were again made available ad libitum and food and water intake were measured for the next thirty (30) minutes. Data were compared using the non-parametric t-Test with the 0.05 level of probability and below being defined as significant.
# Sequence of human MCH2R (Q969V1 whole entry): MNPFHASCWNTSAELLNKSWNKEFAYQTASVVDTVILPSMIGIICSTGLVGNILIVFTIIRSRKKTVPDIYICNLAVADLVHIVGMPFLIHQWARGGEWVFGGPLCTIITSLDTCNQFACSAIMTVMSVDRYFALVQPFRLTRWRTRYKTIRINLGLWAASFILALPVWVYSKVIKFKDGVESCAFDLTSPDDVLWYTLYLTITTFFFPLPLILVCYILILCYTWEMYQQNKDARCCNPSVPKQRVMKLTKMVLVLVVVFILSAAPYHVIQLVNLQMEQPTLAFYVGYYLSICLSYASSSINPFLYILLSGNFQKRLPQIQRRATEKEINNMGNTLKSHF
# Sequence of rat MCH1R (P97639 whole entry): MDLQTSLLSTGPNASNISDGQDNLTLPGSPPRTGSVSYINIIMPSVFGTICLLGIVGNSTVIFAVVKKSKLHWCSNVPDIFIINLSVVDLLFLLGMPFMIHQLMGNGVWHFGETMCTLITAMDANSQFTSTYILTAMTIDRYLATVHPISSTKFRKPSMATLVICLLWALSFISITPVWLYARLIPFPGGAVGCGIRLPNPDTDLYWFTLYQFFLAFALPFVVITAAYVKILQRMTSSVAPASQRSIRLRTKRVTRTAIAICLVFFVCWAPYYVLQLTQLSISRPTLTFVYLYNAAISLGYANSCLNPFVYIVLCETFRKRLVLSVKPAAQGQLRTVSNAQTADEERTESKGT
# Sequence of kappa opioid receptor (dynorphin) (P41145 whole entry): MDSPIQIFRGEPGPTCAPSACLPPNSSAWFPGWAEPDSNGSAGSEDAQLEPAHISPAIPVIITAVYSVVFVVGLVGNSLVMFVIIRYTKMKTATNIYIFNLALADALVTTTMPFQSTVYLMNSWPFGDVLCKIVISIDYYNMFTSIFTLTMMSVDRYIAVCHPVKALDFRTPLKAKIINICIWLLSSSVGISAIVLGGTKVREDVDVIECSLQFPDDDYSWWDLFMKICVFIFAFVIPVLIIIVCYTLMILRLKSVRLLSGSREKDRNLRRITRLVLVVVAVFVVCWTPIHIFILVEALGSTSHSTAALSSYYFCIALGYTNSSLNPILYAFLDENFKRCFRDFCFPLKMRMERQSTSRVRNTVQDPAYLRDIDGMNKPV
# T3 sequence (P97639 whole entry): as the sequence (P97639 whole entry) above
compound,measurement,setting,value
"C[C@@H](CNCc1ccccc1)N1C[C@H](CCCNC(=N)N)N(CCc2cccc(F)c2)C1=S [TPI 1361-17, N-(3-{(4S)-1-[(1S)-2-(benzylamino)-1-methylethyl]-3-[2-(3-fluorophenyl)ethyl]-2-thioxoimidazolidin-4-yl}propyl)guanidine]",IC50,"[1]; 1 nM MCH, HEK 293T cells expressing rat MCH1R",6.1 nM
same,Slope of Schild regression,[1]; r2=0.975,1.085±0.010
same,Kb,[1]; read-out: Kb predicted from Schild regression,0.37 nM
same,pA2 (Schild regression),[1]; shift of MCH dose response curves,9.43
same,Change of basal Ca2+ level by the compound itself,[1]; without MCH,did not change the basal Ca^2+ level
same,Affinity to / antagonism of human MCH2R,[2],no affinity; also recorded: not appreciably antagonize
same,Selectivity for MCH1R compared with human MCH2R,[2],"more than 1,000 fold"
same,Selectivity for MCH1R compared with orexin 1R,[3],"more than 1,000 fold"
same,Selectivity for MCH1R compared with PrRP receptor,[4],"more than 1,000 fold"
same,Selectivity for MCH1R compared with kappa opioid receptor,[5],"more than 1,000 fold"
same,"IC50 inhibiting 30 nM MCH-induced Ca2+ mobilization, 84 individual compounds",[6],highest affinity
same,"30 minute water intake following 1 hour food/water deprivation, TPI treated versus control",[7],not significantly different
same,"30 minute food intake following 1 hour food/water deprivation, TPI treated versus control",[7],significantly greater
same,"30 minute food intake following 1 hour food/water deprivation, TPI treated versus control",[7]; listed as TPI,significant decrease
same,"30 minute water intake following 1 hour food/water deprivation, TPI treated versus control",[7]; listed as TPI,non-significant decrease
